Results taken from ChEMBL document CHEMBL1147536, “Synthesis and biochemical properties of E-ring modified luotonin A derivatives” (2004).

Legend:
Assay type in all cases: functional
Saccharomyces cerevisiae [1] = test: Percent inhibitory activity of 25 uM of compound against growth of Saccharomyces cerevisiae transfected with human topoisomerase-1 in medium containing raffinose
Saccharomyces cerevisiae [2] = test: Percent inhibitory activity of 25 uM of compound against growth of Saccharomyces cerevisiae transfected with human topoisomerase-1 in medium containing galactose
Saccharomyces cerevisiae [3] = test: Percent inhibitory activity of 50 uM of compound against growth of Saccharomyces cerevisiae transfected with human topoisomerase-1 in medium containing galactose
Saccharomyces cerevisiae [4] = test: Percent inhibitory activity of 50 uM of compound against growth of Saccharomyces cerevisiae transfected with human topoisomerase-1 in medium containing raffinose
Saccharomyces cerevisiae [5] = test: Percent inhibitory activity of 100 uM of compound against growth of Saccharomyces cerevisiae transfected with human topoisomerase-1 in medium containing galactose
Saccharomyces cerevisiae [6] = test: Percent inhibitory activity of 100 uM of compound against growth of Saccharomyces cerevisiae transfected with human topoisomerase-1 in medium containing raffinose
Saccharomyces cerevisiae [7] = test: Percent inhibitory activity of 1 uM of compound against growth of Saccharomyces cerevisiae transfected with human topoisomerase-1 in medium containing raffinose
Saccharomyces cerevisiae [8] = test: Percent inhibitory activity of 10 uM of compound against growth of Saccharomyces cerevisiae transfected with human topoisomerase-1 in medium containing raffinose
Saccharomyces cerevisiae [9] = test: Percent inhibitory activity of 1 uM of compound against growth of Saccharomyces cerevisiae transfected with human topoisomerase-1 in medium containing galactose
Saccharomyces cerevisiae [10] = test: Percent inhibitory activity of 10 uM of compound against growth of Saccharomyces cerevisiae transfected with human topoisomerase-1 in medium containing galactose
Saccharomyces cerevisiae [11] = test: Percent inhibitory activity of 1.5 uM of compound against growth of Saccharomyces cerevisiae transfected with human topoisomerase-1 in medium containing raffinose
Saccharomyces cerevisiae [12] = test: Percent inhibitory activity of 15 uM of compound against growth of Saccharomyces cerevisiae transfected with human topoisomerase-1 in medium containing galactose
Saccharomyces cerevisiae [13] = test: Percent inhibitory activity of 1.5 uM of compound against growth of Saccharomyces cerevisiae transfected with human topoisomerase-1 in medium containing galactose
Saccharomyces cerevisiae [14] = test: Percent inhibitory activity of 0.75 uM of compound against growth of Saccharomyces cerevisiae transfected with human topoisomerase-1 in medium containing galactose
Saccharomyces cerevisiae [15] = test: Percent inhibitory activity of 15 uM of compound against growth of Saccharomyces cerevisiae transfected with human topoisomerase-1 in medium containing raffinose
Saccharomyces cerevisiae [16] = test: Percent inhibitory activity of 0.75 uM of compound against growth of Saccharomyces cerevisiae transfected with human topoisomerase-1 in medium containing raffinose
Saccharomyces cerevisiae [17] = test: Percent inhibitory activity of 0.5 uM of compound against growth of Saccharomyces cerevisiae transfected with human topoisomerase-1 in medium containing galactose
Saccharomyces cerevisiae [18] = test: Percent inhibitory activity of 0.5 uM of compound against growth of Saccharomyces cerevisiae transfected with human topoisomerase-1 in medium containing raffinose
Saccharomyces cerevisiae [19] = test: Percent inhibitory activity of 5 uM of compound against growth of Saccharomyces cerevisiae transfected with human topoisomerase-1 in medium containing raffinose
Saccharomyces cerevisiae [20] = test: Percent inhibitory activity of 5 uM of compound against growth of Saccharomyces cerevisiae transfected with human topoisomerase-1 in medium containing galactose

| SMILES | Inhibition (Saccharomyces cerevisiae [3]) [%] | Inhibition (Saccharomyces cerevisiae [4]) [%] | Inhibition (Saccharomyces cerevisiae [7]) [%] | Inhibition (Saccharomyces cerevisiae [8]) [%] | Inhibition (Saccharomyces cerevisiae [9]) [%] | Inhibition (Saccharomyces cerevisiae [10]) [%] | further results |
| --- | --- | --- | --- | --- | --- | --- | --- |
| O=c1c2ccc(F)cc2nc2n1Cc1cc3ccccc3nc1-2 | 73 | 14 | – | – | – | – | Inhibition (Saccharomyces cerevisiae [1]): 0%; Inhibition (Saccharomyces cerevisiae [2]): 40% |
| O=c1c2c(nc3n1Cc1cc4ccccc4nc1-3)CCCC2 | 46 | 3 | – | – | – | – | Inhibition (Saccharomyces cerevisiae [5]): 51%; Inhibition (Saccharomyces cerevisiae [6]): 18% |
| O=c1c2cc(F)c(F)cc2nc2n1Cc1cc3ccccc3nc1-2 | – | – | 26 | 53 | 0 | 0 | – |
| CC[C@@]1(O)C(=O)OCc2c1cc1n(c2=O)Cc2cc3ccccc3nc2-1 [CAMPTOTHECIN] | – | – | – | – | – | – | Inhibition (Saccharomyces cerevisiae [11]): 19%; Inhibition (Saccharomyces cerevisiae [12]): 78%; Inhibition (Saccharomyces cerevisiae [13]): 68%; Inhibition (Saccharomyces cerevisiae [14]): 40%; Inhibition (Saccharomyces cerevisiae [15]): 18%; Inhibition (Saccharomyces cerevisiae [16]): 10% |
| O=c1c2ccccc2nc2n1Cc1cc3ccccc3nc1-2 [LUOTONIN A] | – | – | 0 | 35 | 36 | 56 | Inhibition (Saccharomyces cerevisiae [17]): 23%; Inhibition (Saccharomyces cerevisiae [18]): 0% |
| COc1cccc2c(=O)n3c(nc12)-c1nc2ccccc2cc1C3 [16-METHOXYLUOTONIN A] | – | – | – | – | – | – | Inhibition (Saccharomyces cerevisiae [1]): 47%; Inhibition (Saccharomyces cerevisiae [19]): 35%; Inhibition (Saccharomyces cerevisiae [2]): 2%; Inhibition (Saccharomyces cerevisiae [20]): 0% |
| Cc1ccc2nc3n(c(=O)c2c1)Cc1cc2ccccc2nc1-3 | – | – | 8 | 39 | 14 | 49 | – |
| O=c1c2cccc(O)c2nc2n1Cc1cc3ccccc3nc1-2 | 9 | 0 | – | – | – | – | Inhibition (Saccharomyces cerevisiae [5]): 13%; Inhibition (Saccharomyces cerevisiae [6]): 7% |
